# pEC50, pKi: −log10 of the molar value. Where two headings read alike, the source gives them in different places.
# Tests used:
# PKC [1] = conditions: cited from earlier work
# BDNF = assay: Mouse dosing study: brain BDNF levels; format: in vivo; conditions: mice
# Excerpt: (§1) The following metrics may be used to evaluate dosing regimens: induction of brain postsynaptic anchoring protein PSD-95, upregulation of BDNF levels in brain, upregulation of HGF levels in brain, minimal downregulation of PKC-c levels, and elevation of brain and plasma concentrations of bryostatin or other HGF activating compound. Groups of 2-3 mice may be formed and housed in an approved research animal facility. Water may be given ad libitum. A first study involves three groups of mice with animals in each group dosed weekly for 1, 2, 3, or 6 consecutive weeks. Each group has its own control group containing the same number of mice. For example, mice in the first, second and third groups may receive an intravenous (i.v.) injection of 10 μg/m^2, 15 μg/m^2, and 25 μg/m^2 dose of bryostatin or other HGF activating compound respectively. For each dose, mice in that group may receive a single injection of bryostatin or other HGF activating compound weekly for a predetermined number of consecutive weeks. Following dosing, mice are sacrificed and the blood and brain of each animal is collected for further analysis.
# At a dose of 25 μg/m^2, the levels of brain BDNF may increase with each successive week of dosing, that is, brain BDNF levels may be greatest after three consecutive weeks of dosing. […]
# PKC-ε = assay: Mouse dosing study: brain PKC-ε downregulation; format: in vivo; conditions: mice, 25 μg/m^2 three consecutive weekly doses vs lower doses
# Excerpt: as §1
# A similar observation can be made concerning the levels of the synaptogenesis marker PSD-95. […] Continued weekly dosing at 10 μg/m^2 for another three consecutive weeks (total of 6 consecutive weeks) may result in downregulation. […]
# PSD-95 = assay: Mouse dosing study: PSD-95 levels; format: in vivo; conditions: mice, 25 μg/m^2 i.v. once per week, after three weeks
# Excerpt: as §1
# A similar observation can be made concerning the levels of the synaptogenesis marker PSD-95. […] Continued weekly dosing at 10 μg/m^2 for another three consecutive weeks (total of 6 consecutive weeks) may result in downregulation.
# PKC [2] = target: T1, PKC; conditions: competition with [3H] phorbol dibutyrate; cited from earlier work
# T1 construct: rows headed: Ki for PKC
# [3] = tested on: squamous cell carcinoma and melanoma; conditions: used topically; cited from earlier work
# NCI 60 cell line screen = conditions: cited from earlier work
# protein kinase C = conditions: (−)-enantiomer; read-out: potency EC50; cited from earlier work
structure (smiles),measurement,setting,value
CCCCCCCC(=O)O[C@H]1/C(=C/C(=O)OC)C[C@H]2C[C@H](CO)OC(=O)C[C@H](O)C[C@@H]3CCC[C@H](C[C@@H]4CCO[C@H](/C=C/C(C)(C)[C@]1(O)O2)O4)O3 [Analog 1],affinity for PKC (in words),PKC [1],highest affinity for PKC
same,pKi,PKC [1]; read-out: PKC Affin,9.60
CCC/C=C/C=C/C(=O)O[C@H]1/C(=C/C(=O)OC)C[C@H]2C[C@H]([C@@H](C)O)OC(=O)C[C@H](O)C[C@@H]3C[C@H](OC(C)=O)C(C)(C)[C@](O)(C[C@@H]4C/C(=C/C(=O)OC)C[C@H](/C=C/C(C)(C)[C@]1(O)O2)O4)O3 [Bryostatin-1],levels of brain BDNF,BDNF; 15 μg/m^2 weekly for three consecutive weeks,some increase
same,levels of brain BDNF,BDNF; 25 μg/m^2 weekly,maximum increase
same,PKC-ε downregulation in brain,PKC-ε,may not produce more PKC-c downregulation
same,amounts of PSD-95 in brain and blood samples,PSD-95,higher amounts of PSD-95
"CC1=C[C@]23C(=O)[C@@H](C=C(COC(=O)c4ccccc4)[C@@H](O)[C@]2(O)[C@H]1OC(=O)c1ccccc1)[C@H]1[C@@H](C[C@H]3C)C1(C)C [Ingenol 3,20-dibenzoate]",pKi,PKC [2],6.62
C/C=C(/C)C(=O)O[C@H]1C(C)=C[C@]23C(=O)[C@@H](C=C(CO)[C@@H](O)[C@]12O)[C@H]1[C@@H](C[C@H]3C)C1(C)C [Ingenol-3-angelate],antitumor activity,[3],exhibits antitumor activity
CC1=CC[C@H](C)C(C)(C)[C@@H]1/C=C/C(C)=C/CC[C@@]1(CO)[C@H](CCCO)/C(=C(/C)C=O)CC[C@]1(C)O [Iripallidal],GI50 (concentration required to inhibit growth by 50%),NCI 60 cell line screen,micromolar to nanomolar range
CCCCCCCCc1ccc2c3c(c[nH]c13)C[C@@H](CO)NC(=O)[C@H](C(C)C)N2C [Octylindolactam V],pEC50,protein kinase C,7.54

# Reference: patent US20220133687A1, “METHODS OF TREATING AND PREVENTING NEURODEGENERATIVE DISEASES WITH HGF ACTIVATING COMPOUNDS” (Synaptogenix, Inc., priority 2020, published 2022)
